# From US11272841B2, “Indicator fluids, systems, and methods for assessing movement of substances within, to or from a cerebrospinal fluid, brain or spinal cord compartment of a cranio-spinal cavity of a human” (BRAINWIDESOLUTIONS AS, priority 2017, dated 2022)
# Legend:
# [1] = T1 black-blood MRI: percentage change in normalized signal units in CSF and parasagittal dura after intrathecal gadobutrol, cohort of 18 individuals (FIG. 23g-w); assay type: in vivo, human
# Description: It has for long been an unanswered question how a molecular substance escapes from the CSF of the craniospinal compartment to the dural lymphatics and further to extracranial lymph nodes in humans. Experimental studies in animals have indicated a role of lymphatic vessels in dura mater, but this has yet to be shown in human subjects. The present invention addresses removal of molecular substances from the craniospinal compartment in humans. Basis for the various aspects of the invention are novel observations made by the inventors regarding transport of indicator fluids from CSF to lymphatic structures in dura. The inventors have provided novel observations using time series of MRI T1 black-blood sequences after intrathecal administration of the MRI contrast agent gadobutrol. […]
# FIG. 23o-s illustrate the determination of signal unit ratios, which is particularly useful when measuring indication signals from MRI. Enrichment of indicator fluid is measured as change in T1-BB signal units. […] The enrichment of CSF tracer is quantified as change in signal units (SU) within the regions of interest that are marked by an open circle. The measured signal units were normalized against the reference to correct for any baseline shift of image greyscale between time points. […]
# [2] = human, in vivo
# Description: Repeated T1-weighted MRI scans of the intracranial compartment (and neck region for imaging of cervical lymph nodes), either in the presence or absence of the MRI contrast agent gadobutrol (0.5 ml of 1.0 mmol/ml; Gadovist®, Bayer Pharma AG, GE) delivered to the CSF compartment. MRI scans were acquired on a 3 Tesla Philips Ingenia MRI scanner (Philips Medical systems, Best, The Netherlands). The inventors used a dedicated imaging protocol for each region, that was applied to all time points. The following parameters for 3D T1 w imaging of the intracranial compartment were used: repetition time (TR)=5.1 ms (set to minimum), echo time (TE)=2.3 ms (set to minimum), flip angle=8 degrees, field of view=256×256 cm, and matrix=256×256 pixels (reconstructed 512×512). Total 184 over-contiguous slices with 1 mm thickness were sampled and automatically reconstructed to 368 slices and a thickness of 0.5 mm. Each image acquisition lasted 6 minutes and 29 seconds. An automated anatomy recognition protocol based on landmark detection in MRI data (SmartExam™, Philips Medical Systems, Best, The Netherlands) was applied at every time point to secure consistency and reproducibility of the MRI studies. Neck images were obtained in an anatomical standardized coronal plane, using T1 weighted turbo spin echo (TSE) DIXON with the following main image sequence parameters: TR=560 ms, TE=14 ms, flip angle=90 degrees, field of view 250×198 mm, voxel size=1×1×3 mm reconstructed to 0.58×0.58×3 mm^3, gap 0.3 mm, number of slices=30. For detection of neck lymph nodes, we obtained coronal T2 weighted TSE DIXON with TR=ranged 2500-3500 (actual 2500), TE=80 ms, flip angle=90 degrees, field of view 250×200 mm, resolution 0.6×0.79×3 mm^3 reconstructed to 0.58×0.58×3 mm^3, gap 0.3 mm, number of slices=30. Moreover, to ensure same position on the coronal slices between scan times a screen dump showing the placement of the first coronal images was saved and used as a reference for subsequent planning by the radiographer. […]
# [3] = cited from earlier work
smiles,measurement,setting,value
O=C([O-])CN1CCN(CC(=O)[O-])CCN([C@H](CO)[C@H](O)CO)CCN(CC(=O)[O-])CC1.[Gd+3] (racemic) [gadobutrol],Time of peak signal change (normalized T1-BB signal units),[1]; CSF nearby parasagittal dura,24 h
same,Time of peak signal change (normalized T1-BB signal units),[1]; parasagittal dura,24 h
same,Increase of indication signal as compared without contrast,[2],29%
same,SU enhancement within cervical LNs as proportion of that in the brain,[2],about 40%
same,Time of peak enhancement in T1 SUs after gadobutrol present within CSF,[2],24 h
same,Half-time of gadobutrol in blood,[3],about 1.8 hours
